In US12365705B2, “Epitope tags recognized by specific binders” (NANOTAG BIOTECHNOLOGIES GmbH, priority 2018, dated 2025):

Tests used:
[1] = property of tag; cited from earlier work
[2] = test system: NbALFA^ST (SEQ ID NO: 133); assay: Off-rate assay: peptide elution of ALFA-tagged shGFP2 fusions from ALFA Selector^ST resin; assay type: binding, Alpaca
Protocol: After washing 4 times with PBS, the beads were suspended in a 10-fold excess of PBS containing 200 μM ALFA^ST peptide (Ac-[sequence]-Amide, SEQ ID NO: 179) and gently mixed at room temperature. At indicated time points, specific elution from the beads was quantified using the GFP fluorescence released into the supernatant. Shown are mean fluorescence values from three independent experiments performed in parallel and standard deviations for each time point. […] C, 10 μl of ALFA Selector^ST resin saturated with either ALFA^ST-shGFP2 (top row) or ALFA^PE-shGFP2 (bottom row) were transferred into 8-well PCR strips. After removing remaining liquid, the beads were incubated with 10 μl of the indicated substances for 60 min at room temperature. Photos were taken after sedimentation of the beads.
20 μl ALFA Selector^ST or ALFA Selector^PE (NanoTag Biotechnologies) was saturated with the respective recombinant target protein. After washing 4× with PBS, the beads were suspended in a 10-fold excess of PBS containing 200 μM free ALFA^ST peptide and mixed at 25° C. Control reactions were carried out without peptide. At indicated time points, specific elution from the beads was quantified using the GFP fluorescence released into the supernatant (Q-Bit 3.0; Thermo-Fischer Scientific). Three independent experiments were performed in parallel. Mean values, standard deviations and exponential fits were calculated using GraphPad Prism 5.0. Photographic pictures were taken upon UV illumination using a Nikon D700 equipped with a 105 mm macro lens (Nikon).

[3] = test system: NbALFA^PE (SEQ ID NO: 134); assay: Off-rate assay: peptide elution of ALFA^ST-tagged shGFP2 from ALFA Selector^PE resin; assay type: binding, Alpaca; details: for t1/2: peptide elution from ALFA Selector^PE
Protocol: FIG. 8: Interaction of ALFA^ST-tagged proteins with ALFA Selector^ST and ALFA Selector^PE resins. • A; Sketch of ALFA Selector resins bound to shGFP2-ALFA^ST. In this sketch, the ALFA Selector resin could be ALFA Selector^ST or ALFA Selector^PE. • B and C; Peptide elution from NbALFA-coupled affinity resins. […] To estimate off-rates, the resins were suspended PBS containing an excess of free ALFA^ST peptide and incubated at 25° C. Control reactions were carried out without peptide. At indicated time points, shGFP2 released from the resin was quantified. […] Lines represent fits to a single exponential. Efficient peptide elution of shGFP2-ALFA^ST from ALFA Selector^E was observed already after 15-20 min at room temperature. […] A photo was taken upon UV illumination after 3 h of elution (C). • D; Resistance towards stringent washing steps. ALFA Selector variants described in B were charged with either ALFA^ST-shGFP2 or shGFP2-ALFA^ST and incubated with a 10-fold volume of the indicated substances for 1 h at 25° C. with shaking. Without further washing steps, photos were taken upon UV illumination after sedimentation of the beads. • E; Resistance towards non-physiological pH. Similar to D. Here, however, the resin was washed to remove non-bound material after incubating at indicated pH for 30 min. Photos were taken after re-equilibration in PBS to allow for recovery of the GFP fluorescence.
After washing with PBS, the beads were suspended in a 10-fold excess of PBS containing 200 μM free ALFA^ST peptide and gently mixed at 25° C. Control reactions were carried out without peptide. At indicated time points, specific elution from the beads was quantified using the GFP fluorescence released into the supernatant. Shown are mean fluorescence readings of three experiments as well as standard deviations for each time point. Lines represent fits to a single exponential. Half times are given for peptide elution from ALFA Selector^PE only. […] FIG. 10A recapitulates data shown in FIG. 8B and is repeated here to allow for a direct comparison. Left panels: Sketch illustrating the experimental setup. The ALFA Selector resin could be ALFA Selector^ST or ALFA Selector^PE; middle panels: Experiments performed with ALFA Selector^ST; right panel: Experiments performed with ALFA Selector^PE.
Next, we site-specifically immobilized NbALFA^ST on an agarose-based resin with ultra-low background via a hydrophilic and flexible linker. Binding to the nanobody-coupled resin was analyzed using an ALFA^ST-tagged GFP variant (shGFP2; Frey, S. et al. Surface Properties Determining Passage Rates of Proteins through Nuclear Pores. Cell 174, 202-217.e9 (2018); FIG. 8A, B). As expected, shGFP2-ALFA^ST efficiently and tightly bound to the resulting resin. […]

[4] = test system: ALFA^ST-tagged target proteins (ALFA^ST-Vimentin or Tom70-EGFP-ALFA^ST); assay: Intrabody-based detection in co-transfected COS-7 cells; assay type: cell-based; details: co-expression in cytoplasm
Source text: Grey boxes indicate CDRs 1-3 (AbM definition, SEQ ID NOs: 115-117). • C: COS-7 cells transfected with Tom70-EGFP-ALFA^ST (upper row) or Tom70-EGFP-ALFA^PE (lower row) were fixed with 4% paraformaldehyde. […] First column: FluoTag-X2 anti-ALFA; second column: target detection using the intrinsic EGFP fluorescence; third column: overlay incl. […] Right column: Sketch of ALFA-tagged vimentins detected by fluorescently labeled NbALFA^ST. • E: Intrabody-based detection of ALFA^ST-tagged proteins. COS-7 cells were co-transfected with an NbALFA^ST-mScarlet-I fusion and ALFA^ST_tagged target proteins. Target proteins were detected via EGFP fluorescence (for TOM70-EGFP-ALFA^ST) or immunofluorescence using FluoTag anti-ALFA AbberiorStar635P (for ALFA^ST-FLAG-Vimentin). In parallel, NbALFA^ST-mScarlet-I was detected by the red mScarlet-I fluorescence. Note the excellent co-localization between the target protein (left column) and the mScarlet-I signal (middle column).
We next wanted to know if our NbALFA^ST can also be used as an intrabody. […]

Chain of NbALFA^PE (SEQ ID NO: 134) (as listed by the source): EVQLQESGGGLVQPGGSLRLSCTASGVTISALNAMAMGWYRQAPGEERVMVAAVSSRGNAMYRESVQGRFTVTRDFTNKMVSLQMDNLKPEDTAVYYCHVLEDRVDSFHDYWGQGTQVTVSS

YPYDVPDYA [HA-tag]
Water solubility [1]: poor

shGFP2-ALFA^ST: GFP variant shGFP2 with C-terminal ALFA^ST tag
protein remained on the resin ([2]; after 60 minutes competition with 10 column volumes of 200 μM ALFA^ST peptide): > 95% | peptide elution from ALFA Selector^ST ([2]; excess of free ALFA^ST peptide (200 μM)): inefficient even after prolonged incubation | time to efficient release from ALFA Selector^PE ([3]; native conditions, room temperature, competition with free ALFA^ST peptide): 15 to 20 min | washing time over which target protein remained stably bound to ALFA Selector^PE ([3]; no free peptide): > 1 h | t1/2 ([3]; C-terminal ALFA^ST tag): ~3 min

ALFA^ST-shGFP2: GFP variant shGFP2 with N-terminal ALFA^ST tag
protein remained on the resin ([2]; after 90 minutes competition with 10 column volumes of 200 μM ALFA^ST peptide): > 95% | t1/2 ([3]; N-terminal ALFA^ST tag): ~0.833 min

B1: NbALFA^ST fused to mScarlet-I: NbALFA^ST fused to red fluorescent protein mScarlet-I, used as intrabody (protein)
chain: MGSGDASDSEVQLQESGGGLVQPGGSLRLSCTASGVTISALNAMAMGWYRQAPGERRVMVAAVSERGNAMYRESVQGRFTVTRDFTNKMVSLQMDNLKPEDTAVYYCHVLEDRVDSFHDYWGQGTQVTVSSEPKTPKPQTSGSTGENVATMVSKGEAVIKEFMRFKVHMEGSMNGHEFEIEGEGEGRPYEGTQTAKLKVTKGGPLPFSWDILSPQFMYGSRAFIKHPADIPDYYKQSFPEGFKWERVMNFEDGGAVTVTQDTSLEDGTLIYKVKLRGTNFPPDGPVMQKKTMGWEASTERLYPEDGVLKGDIKMALRLKDGGRYLADFKTTYKAKKPVQMPGAYNVDRKLDITSHNEDYTVVEQYERSEGRHSTGGMDELYK
modifications: fusion protein
notes: NbALFA^ST fused to red fluorescent protein mScarlet-I, used as intrabody
co-localization of mScarlet-I signal with target protein [4]: robustly co-localized
